These results are taken from US6057311A, “Benzodiazonine derivatives binding to cholecystokinin or gastrin receptors” (James Black Foundation Limited, priority 1996, dated 2000).

The target of the assay is T1, CCKB receptor (Mus musculus, UniProt P56481).
T1 construct: The cortex was dissected, weighed and homogenised in 40 ml ice-cold buffer; tissue Charles River (animals); host or cells: cerebral cortex of male CD1 mice, membranes
T1 sequence (P56481 1-453): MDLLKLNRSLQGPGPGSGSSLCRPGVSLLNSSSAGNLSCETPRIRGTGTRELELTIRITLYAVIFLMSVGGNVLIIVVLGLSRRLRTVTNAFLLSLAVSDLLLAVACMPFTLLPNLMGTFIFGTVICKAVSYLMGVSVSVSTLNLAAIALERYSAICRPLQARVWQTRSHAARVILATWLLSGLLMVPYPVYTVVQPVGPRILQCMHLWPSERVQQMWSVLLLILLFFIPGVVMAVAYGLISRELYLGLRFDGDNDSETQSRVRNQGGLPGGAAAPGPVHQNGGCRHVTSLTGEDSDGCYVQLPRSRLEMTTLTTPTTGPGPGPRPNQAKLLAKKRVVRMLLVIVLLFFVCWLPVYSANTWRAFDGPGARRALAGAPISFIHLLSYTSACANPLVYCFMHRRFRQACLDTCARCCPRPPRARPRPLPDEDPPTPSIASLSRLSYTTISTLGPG
Kind of assay: radioligand binding assay at the CCKB receptor in mouse cortical membranes ([125I]-CCK8S). Particulars: [125I]-CCK8S 200 pM, 150 min at 21±3° C.; for Ki: pH 7.2, read-out: pKi (Mouse cortex) (converted); for pKi (Mouse cortex): pH 7.2. The procedure: The compounds of the examples were tested for binding at the CCKB receptor in mouse cortical membranes by means of a radioligand binding assay. The procedure was as follows:
The whole brains from male mice (CD1 22-25 g; Charles River) were removed and placed in ice-cold buffer (pH7.2@21±3° C.) of the following composition (mM); 10 HEPES, 130 NaCl, 4.7 KCl, 5 MgCl2, 1 EDTA and containing 0.25 g.1^-1 bacitracin. The cortex was dissected, weighed and homogenised in 40 ml ice-cold buffer using a Teflon-in-glass homogeniser. The homogenate was centrifuged at 39,800 g for 20 min at 4° C., the supernatant discarded and the pellet resuspended by homogenisation in fresh buffer. The homogenate was recentrifuged (39,800 g; 20 min @4° C.) and the final pellet was resuspended in HEPES buffer to give a tissue concentration of 2 mg.ml^-1 (original wet weight).
The membranes (400 μl) were incubated for 150 min at 21±3° C. in a final volume of 0.5 ml with HEPES buffer containing [^125 I]-CCK8S (0.05 ml; 200 pM NEN 2200 Ci.mmol^-1) and competing compound. Total and non-specific binding of [^125 I]-CCK8S were defined using 0.05 ml of buffer and 0.05 ml of […] L-365,260, respectively. The assay was terminated by rapid filtration through pre-soaked Whatman GF/B filters using a Brandell Cell harvester. The filters were washed (3×3 ml) with ice-cold 50 mM Tris-HCl (pH7.4@4° C.) and bound radioactivity determined by counting (1 min.) in a gamma-counter.

With `COc1ccc2c(c1)C(=O)C[C@@H](C(=O)NCC(=O)O)N(C(C)=O)[C@H](CC13CC4CC(CC(C4)C1)C3)C(=O)N2Cc1ccccc1` (relative stereo) [Example 69, (+/-)-trans-4-acetyl-3-(1-adamantyl)methyl-1-benzyl-5-carboxymethylaminocarbonyl-2,7-dioxo-9-methoxy-2,3,4,5,6,7-hexahydro-1H-1,4-benzodiazonine], the Ki is 126 nM.

Turning to `CC1CCN(C(=O)Nc2cc(C(=O)O)cc(C(=O)O)c2)CC(=O)N(Cc2ccccc2)c2ccccc21` (stereo not shown) [Example 47, 1-benzyl-7-methyl-4-(3,5-dicarboxyphenyl)carbamyl-2-oxo-2,3,4,5,6,7-hexahydro-1H-1,4-benzodiazonine], the Ki is 6310 nM.

In the case of `CC1CCN(C(=O)Nc2cccc(C(=O)O)c2)CC(=O)N(Cc2ccccc2)c2ccccc21` (stereo not shown) [Example 48, 1-benzyl-7-methyl-4-(3-carboxyphenyl)carbamyl-2-oxo-2,3,4,5,6,7-hexahydro-1H-1,4-benzodiazonine], the “pKi (Mouse cortex)” value was determined as 4.8.

On to `Cc1cccc(NC(=O)N2CCCc3ccccc3N(CC(=O)OC(C)(C)C)C(=O)C2)c1` [Example 49, 1-tert-butyloxycarbonylmethyl-4-(3-methylphenyl)carbamyl-2-oxo-2,3,4,5,6,7-hexahydro-1H-1,4-benzodiazonine], for which the Ki is 6310 nM.

`Cc1cccc(NC(=O)N2CCCc3ccccc3N(Cc3ccccc3)C(=O)C2)c1` [Example 54, 1-benzyl-4-(3-methylphenyl)carbamyl-2-oxo-2,3,4,5,6,7-hexahydro-1H-1,4-benzodiazonine]: the Ki was 3980 nM.

For `CC(=O)N1[C@H](CC23CC4CC(CC(C4)C2)C3)C(=O)N(Cc2cccc(Cl)c2)c2ccccc2C(=O)C[C@H]1C(=O)NCC(=O)O` [Example 62, (3R,5S)-4-acetyl-3-(1-adamantyl)methyl-1-(3-chlorobenzyl)-5-carboxymethylaminocarbonyl-2,7-dioxo-2,3,4,5,6,7-hexahydro-1H-1,4-benzodiazonine], the Ki was 398 nM.

Turning to `CC(=O)N1[C@H](CC23CC4CC(CC(C4)C2)C3)C(=O)N(Cc2ccccc2F)c2ccccc2C(=O)C[C@H]1C(=O)NCC(=O)NS(C)(=O)=O` [Example 65, (3R,5S)-4-acetyl-3-(1-adamantyl)methyl-1-(2-fluorobenzyl)-5-methanesulphonamidocarboxymethylaminocarbonyl-2,7-dioxo-2,3,4,5,6,7-hexahydro-1H-1,4-benzodiazonine], the Ki was 398 nM.

As to `CC(=O)N1[C@H](CC23CC4CC(CC(C4)C2)C3)C(=O)N(Cc2ccccc2F)c2ccccc2C(=O)C[C@H]1C(=O)N[C@@H](C)C(=O)NS(C)(=O)=O` [Example 66, (3R,5S)-4-acetyl-3-(1-adamantyl)methyl-1-(2-fluorobenzyl)-5-[(1S)-methanesulphonamidocarboxy]ethylaminocarbonyl-2,7-dioxo-2,3,4,5,6,7-hexahydro-1H-1,4-benzodiazonine], the Ki was 501 nM.

Consider `CC(=O)N1[C@H](CC23CC4CC(CC(C4)C2)C3)C(=O)N(Cc2ccccc2)c2ccccc2C(=O)C[C@H]1C(=O)NCc1nn[nH]n1` [Example 67, (3R,5S)-4-acetyl-3-(1-adamantyl)methyl-1-benzyl-5-tetrazolomethylaminocarbonyl-2,7-dioxo-2,3,4,5,6,7-hexahydro-1H-1,4-benzodiazonine], for which the Ki is 158 nM.

On to `CC(=O)N1[C@H](CC23CC4CC(CC(C4)C2)C3)C(=O)N(Cc2ccccc2F)c2ccccc2C(=O)C[C@H]1C(=O)NCc1nn[nH]n1` [Example 68, (3R,5S)-4-acetyl-3-(1-adamantyl)methyl-1-(2-fluorobenzyl)-5-(5-tetrazolo)methylaminocarbonyl-2,7-dioxo-2,3,4,5,6,7-hexahydro-1H-1,4-benzodiazonine], for which the “pKi (Mouse cortex)” value is 6.8.

On to `CC(=O)N1[C@H](CC23CC4CC(CC(C4)C2)C3)C(=O)N(Cc2cccc(C)c2)c2ccccc2C(=O)C[C@H]1C(=O)NCC(=O)O` [Example 71, (3R,5S)-4-acetyl-3-(1-adamantyl)methyl-1-(3-methylbenzyl)-5-carboxymethylaninocarbonyl-2,7-dioxo-2,3,4,5,6,7-hexahydro-1H-1,4-benzodiazonine], for which the Ki is 1000 nM.

Turning to `CC(=O)N1[C@H](CC23CC4CC(CC(C4)C2)C3)C(=O)N(Cc2ccc(C)cc2)c2ccccc2C(=O)C[C@H]1C(=O)NCC(=O)O` [Example 72, (3R,5S)-4-acetyl-3-(1-adamantyl)methyl-1-(4-methylbenzyl)-5-carboxymethylaminocarbonyl-2,7-dioxo-2,3,4,5,6,7-hexahydro-1H-1,4-benzodiazonine], the Ki was 631 nM.

As to `CC(=O)N1[C@@H](C(=O)NCC(=O)O)CC(=O)c2ccccc2N(Cc2ccccc2F)C(=O)[C@@H]1CC12CC3CC(CC(C3)C1)C2` [Example 73, (3S ,5R)-4-acetyl-3-(1-adamantyl)methyl-1-(2-fluorobenzyl)-5-carboxymethylaminocarbonyl-2,7-dioxo-2,3,4,5,6,7-hexahydro-1H-1,4-benzodiazonine], the Ki is 2510 nM.

For the molecule `CC(=O)N1[C@H](CC23CC4CC(CC(C4)C2)C3)C(=O)N(Cc2ccccc2C)c2ccccc2C(=O)C[C@H]1C(=O)NCC(=O)O` [Example 74, (3R,5S)-4-acetyl-3-(1-adamantyl)methyl-1-(2-methylbenzyl)-5-carboxymethylaminocarbonyl-2,7-dioxo-2,3,4,5,6,7-hexahydro-1H-1,4-benzodiazonine], the Ki is 158 nM.

Consider `COc1ccc(CN2C(=O)[C@@H](CC34CC5CC(CC(C5)C3)C4)N(C(C)=O)[C@H](C(=O)NCC(=O)O)CC(=O)c3ccccc32)cc1` [Example 75, (3R,5S)-4-acetyl-3-(1-adamantyl)methyl-1-(4-methoxybenzyl)-5-carboxymethylaminocarbonyl-2,7-dioxo-2,3,4,5,6,7-hexahydro-1H-1,4-benzodiazonine], for which the “pKi (Mouse cortex)” value came out at 5.9.

For the molecule “(+/-)-trans-4-acetyl-3-(1-adamantyl)methyl-1-benzyl-5-carboxymethylaminocarbonyl-2,7-dioxo-9-methyl-2,3,4,5,6,7-hexahydro-1H-1,4-benzodiazonine [Example 70]”, the “pKi (Mouse cortex)” value worked out at 6.9.
